Results on 1 compound are retold here after publication PMC8500670, “A selective WDR5 degrader inhibits acute myeloid leukemia in patient-derived mouse models” (Science translational medicine, 2021).

Structures are written as SMILES. Read-outs that look alike come from different tables or passages of the source.

Assay in all cases: biochemical
What all share (parameters): protein methyltransferase selectivity panel, enzyme activity relative to DMSO controls, single concentration in duplicate
Conditions in all cases: Substrate:=Nucleosomes

Experiment [1] concerns the target NSD1 (Homo sapiens, UniProt Q96L73). As to the method:
(§1) We next assessed selectivity of MS67 against 22 protein methyltransferases (table S2) and a broad panel of common drug targets including 45 kinases (table S3) and 44 G protein–coupled receptors (GPCR), ion channels, and transporters (table S4). […] We subsequently determined that MS67 had moderate binding affinity (Ki = 1.0 ± 0.8 μM) to Sigma 2 receptor (fig. S10).

Experiment [2] has as its target T1, NSD2 (Homo sapiens, UniProt O96028).
T1 sequence (O96028 1-1365): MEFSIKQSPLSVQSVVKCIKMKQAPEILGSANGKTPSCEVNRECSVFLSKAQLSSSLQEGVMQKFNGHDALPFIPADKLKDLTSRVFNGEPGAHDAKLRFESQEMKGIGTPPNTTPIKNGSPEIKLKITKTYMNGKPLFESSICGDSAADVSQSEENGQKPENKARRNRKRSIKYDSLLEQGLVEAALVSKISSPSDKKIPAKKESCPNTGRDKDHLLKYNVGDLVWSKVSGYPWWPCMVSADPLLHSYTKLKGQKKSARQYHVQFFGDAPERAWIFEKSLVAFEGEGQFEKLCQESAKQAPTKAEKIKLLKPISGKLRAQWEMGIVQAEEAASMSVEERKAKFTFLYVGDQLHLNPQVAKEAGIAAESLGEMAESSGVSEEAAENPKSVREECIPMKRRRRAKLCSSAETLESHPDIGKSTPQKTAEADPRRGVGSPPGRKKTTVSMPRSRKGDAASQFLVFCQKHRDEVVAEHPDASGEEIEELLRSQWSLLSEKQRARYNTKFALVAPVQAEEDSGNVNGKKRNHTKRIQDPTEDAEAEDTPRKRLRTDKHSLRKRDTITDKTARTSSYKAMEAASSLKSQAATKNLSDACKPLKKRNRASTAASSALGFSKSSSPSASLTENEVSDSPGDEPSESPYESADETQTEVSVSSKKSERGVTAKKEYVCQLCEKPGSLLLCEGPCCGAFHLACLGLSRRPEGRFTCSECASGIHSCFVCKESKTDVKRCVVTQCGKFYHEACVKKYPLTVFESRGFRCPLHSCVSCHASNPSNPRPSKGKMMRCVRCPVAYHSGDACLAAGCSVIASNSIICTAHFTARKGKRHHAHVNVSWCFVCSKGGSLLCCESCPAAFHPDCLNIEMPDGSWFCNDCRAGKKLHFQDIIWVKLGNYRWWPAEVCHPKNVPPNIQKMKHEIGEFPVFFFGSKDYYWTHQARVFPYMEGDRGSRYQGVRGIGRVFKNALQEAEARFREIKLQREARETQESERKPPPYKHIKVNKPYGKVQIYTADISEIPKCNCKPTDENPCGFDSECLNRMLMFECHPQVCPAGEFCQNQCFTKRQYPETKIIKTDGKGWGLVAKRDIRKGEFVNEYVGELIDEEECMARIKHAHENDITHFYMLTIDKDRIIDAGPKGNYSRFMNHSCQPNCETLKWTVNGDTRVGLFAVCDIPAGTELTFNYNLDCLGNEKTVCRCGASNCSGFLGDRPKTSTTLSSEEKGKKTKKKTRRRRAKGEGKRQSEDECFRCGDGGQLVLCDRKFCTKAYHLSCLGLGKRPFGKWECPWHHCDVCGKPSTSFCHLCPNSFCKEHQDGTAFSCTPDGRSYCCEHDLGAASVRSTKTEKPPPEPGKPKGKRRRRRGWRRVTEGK
As to the method:
as §1

Experiment [3] deals with T2, SET8 (Homo sapiens, UniProt Q9NQR1).
T2 construct: gene KMT5A
T2 sequence (Q9NQR1 1-393): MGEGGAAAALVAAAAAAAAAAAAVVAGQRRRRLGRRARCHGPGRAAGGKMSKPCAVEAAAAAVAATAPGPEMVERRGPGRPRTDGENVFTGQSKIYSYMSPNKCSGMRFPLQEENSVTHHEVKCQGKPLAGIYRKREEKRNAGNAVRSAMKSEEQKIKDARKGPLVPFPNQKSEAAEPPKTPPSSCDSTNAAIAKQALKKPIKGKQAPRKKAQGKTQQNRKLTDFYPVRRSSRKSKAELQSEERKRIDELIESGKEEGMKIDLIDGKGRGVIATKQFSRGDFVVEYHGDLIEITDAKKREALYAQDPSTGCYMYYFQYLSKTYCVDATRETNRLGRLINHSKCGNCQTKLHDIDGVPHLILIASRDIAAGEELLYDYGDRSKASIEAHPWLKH
The procedure: as §1

The mark [4] stands for this setting: read-out: Enzyme % Activity (relative to DMSO controls) / MS67 / 10 / Data 1:
[5] abbreviates: read-out: Enzyme % Activity (relative to DMSO controls) / MS67 / 10 / Data 2:

Chain of NSD1 (Q96L73 whole entry): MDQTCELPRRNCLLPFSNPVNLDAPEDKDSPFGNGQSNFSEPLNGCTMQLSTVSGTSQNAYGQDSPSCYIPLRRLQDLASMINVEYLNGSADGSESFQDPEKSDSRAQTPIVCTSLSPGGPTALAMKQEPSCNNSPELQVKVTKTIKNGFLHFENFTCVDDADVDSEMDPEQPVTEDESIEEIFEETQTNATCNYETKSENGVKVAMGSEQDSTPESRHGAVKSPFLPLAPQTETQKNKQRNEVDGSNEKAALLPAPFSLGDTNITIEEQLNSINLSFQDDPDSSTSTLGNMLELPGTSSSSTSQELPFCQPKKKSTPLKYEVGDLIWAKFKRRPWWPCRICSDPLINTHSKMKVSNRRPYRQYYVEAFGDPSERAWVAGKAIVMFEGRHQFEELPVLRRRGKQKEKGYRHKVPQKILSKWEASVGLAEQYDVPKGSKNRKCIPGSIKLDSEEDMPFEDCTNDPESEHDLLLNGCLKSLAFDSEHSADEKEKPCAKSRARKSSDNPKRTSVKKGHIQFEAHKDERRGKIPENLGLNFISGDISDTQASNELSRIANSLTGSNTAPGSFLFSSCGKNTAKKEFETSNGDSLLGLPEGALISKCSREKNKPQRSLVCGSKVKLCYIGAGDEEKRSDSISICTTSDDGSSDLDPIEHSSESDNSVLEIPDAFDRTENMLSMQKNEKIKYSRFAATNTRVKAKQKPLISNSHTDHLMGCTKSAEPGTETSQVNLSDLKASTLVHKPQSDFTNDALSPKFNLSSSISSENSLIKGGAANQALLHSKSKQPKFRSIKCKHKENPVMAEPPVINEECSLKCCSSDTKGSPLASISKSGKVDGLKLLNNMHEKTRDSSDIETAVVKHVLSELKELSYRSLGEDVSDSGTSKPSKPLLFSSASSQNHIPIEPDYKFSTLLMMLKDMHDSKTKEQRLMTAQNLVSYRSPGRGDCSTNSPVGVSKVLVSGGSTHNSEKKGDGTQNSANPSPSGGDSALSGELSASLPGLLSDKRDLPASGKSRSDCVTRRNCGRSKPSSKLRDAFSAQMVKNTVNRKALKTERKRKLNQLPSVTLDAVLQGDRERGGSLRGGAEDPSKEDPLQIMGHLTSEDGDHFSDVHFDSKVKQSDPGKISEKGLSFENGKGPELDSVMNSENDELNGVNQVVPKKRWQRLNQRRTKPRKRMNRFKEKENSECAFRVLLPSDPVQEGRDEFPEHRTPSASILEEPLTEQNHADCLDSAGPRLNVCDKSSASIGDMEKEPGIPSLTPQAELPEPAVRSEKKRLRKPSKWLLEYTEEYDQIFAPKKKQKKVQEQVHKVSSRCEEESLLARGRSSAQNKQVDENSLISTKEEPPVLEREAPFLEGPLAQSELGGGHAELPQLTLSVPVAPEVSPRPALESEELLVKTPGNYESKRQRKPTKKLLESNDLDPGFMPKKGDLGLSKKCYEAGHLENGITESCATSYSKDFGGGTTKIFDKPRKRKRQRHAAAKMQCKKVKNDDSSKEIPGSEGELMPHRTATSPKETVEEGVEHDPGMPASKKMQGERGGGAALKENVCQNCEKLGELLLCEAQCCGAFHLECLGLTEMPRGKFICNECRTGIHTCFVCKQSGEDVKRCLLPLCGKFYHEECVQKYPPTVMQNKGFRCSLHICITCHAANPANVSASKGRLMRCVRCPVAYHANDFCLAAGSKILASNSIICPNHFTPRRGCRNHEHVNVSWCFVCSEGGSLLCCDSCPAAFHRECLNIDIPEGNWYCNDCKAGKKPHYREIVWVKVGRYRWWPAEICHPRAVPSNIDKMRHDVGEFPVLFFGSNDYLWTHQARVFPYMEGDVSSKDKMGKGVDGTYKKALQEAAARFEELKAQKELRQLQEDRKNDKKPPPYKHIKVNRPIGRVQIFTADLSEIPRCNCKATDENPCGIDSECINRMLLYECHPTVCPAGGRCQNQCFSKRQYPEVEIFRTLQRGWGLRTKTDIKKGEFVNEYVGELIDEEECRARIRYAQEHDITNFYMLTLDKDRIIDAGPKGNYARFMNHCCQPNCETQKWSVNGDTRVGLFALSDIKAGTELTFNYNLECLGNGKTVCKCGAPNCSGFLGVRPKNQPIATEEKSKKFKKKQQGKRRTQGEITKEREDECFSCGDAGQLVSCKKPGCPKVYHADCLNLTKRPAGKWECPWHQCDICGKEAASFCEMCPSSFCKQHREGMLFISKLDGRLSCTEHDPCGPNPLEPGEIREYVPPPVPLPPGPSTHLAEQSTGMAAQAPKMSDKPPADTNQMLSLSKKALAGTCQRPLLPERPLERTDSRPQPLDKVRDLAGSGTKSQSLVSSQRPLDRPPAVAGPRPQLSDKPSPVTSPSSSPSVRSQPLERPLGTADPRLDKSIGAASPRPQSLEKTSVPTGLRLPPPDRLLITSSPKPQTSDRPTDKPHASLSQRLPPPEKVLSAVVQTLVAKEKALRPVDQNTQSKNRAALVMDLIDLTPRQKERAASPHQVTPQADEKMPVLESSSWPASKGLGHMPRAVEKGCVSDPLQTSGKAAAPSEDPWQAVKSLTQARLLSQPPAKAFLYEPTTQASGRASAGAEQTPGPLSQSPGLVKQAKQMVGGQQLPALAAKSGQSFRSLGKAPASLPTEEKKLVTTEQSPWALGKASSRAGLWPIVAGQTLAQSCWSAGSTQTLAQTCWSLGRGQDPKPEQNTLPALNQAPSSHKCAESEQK

As for `Cc1ncsc1-c1ccc([C@H](C)NC(=O)[C@@H]2C[C@@H](O)CN2C(=O)[C@@H](NC(=O)CNC(=O)c2ccc(F)c(-c3ccc(N4C[C@@H](C)N(C)[C@@H](C)C4)c(NC(=O)c4c[nH]c(=O)cc4C(F)(F)F)c3)c2)C(C)(C)C)cc1` [MS67], the remaining activity at 10 µM worked out at 111% in experiment [1] (setting [4]); 107% in experiment [1] (setting [5]); 93% in experiment [2] (setting [4]); 107% in experiment [2] (setting [5]); 112% in experiment [3] (setting [4]); 113% in experiment [3] (setting [5]).
